Where “and” joins values, the source holds several entries; their conditions need not be identical. Equal entries are not always repeated. Where two headings read alike, the source gives them in different places. Marks after values point to notes of the source that are not given here.
Legend:
[1] = tested on: subcutaneous Tsc2^-/- tumors (NTC/T2null cells); assay: Subcutaneous Tsc2-/- tumor model in nude mice, atorvastatin, doxycycline and rapamycin study; conditions: for Efficacy on tumor growth and survival, in words / Median survival: doxycycline 10 mg/kg IP 5 days per week, rapamycin 8 mg/kg IP 3 days per week; for Median survival: time to tumor volume ~3000 mm^3, atorvastatin 20 mg/kg IP, start at ~50 mm^3
Description: (§1) Nude mice (strain CD-1nuBR, up to 6–8 weeks old) were obtained from Charles River Laboratories, Inc. (Wilmington, Massachusetts) and injected subcutaneously on the dorsal flank with 2.5 million NTC/T2null (Tsc2^-/-, Trp53^-/-) cells. As soon as tumors became visible, they were measured Monday through Friday using calipers. Tumor volumes were calculated using the formula: length × width × width × 0.5 [43]. All mice were euthanized once tumors reached ~3000 mm^3 in accordance with institutional animal care guidelines. Please note that survival analysis is done using time to tumor volume of ~3000 mm^3, because this is when animals are euthanized. […] Statistical comparison of tumor volume measurements between groups is done on the last day that relevant groups had at least four tumor measurements.
A cohort of 48 CD-1 nude mice was injected with NTC/T2null (Tsc2^-/-, Trp53^-/-) cells.
All drug treatments started when tumors reached a volume of ~50 mm^3 (day 1 of treatment), regardless of treatment schedule, and animals were euthanized when tumors reached a volume of ~3000 mm^3. If a volume of 40 mm^3 was reached on Thursday or Friday, treatment began that day. Otherwise, treatment was started on the day tumor volume was ≥50 mm^3.
Mice being treated with doxycycline were treated daily Monday through Friday with 200 μl of a 1.5 mg/ml (10 mg/kg) IP injection. […] All drug doses were calculated based on an average weight of 30 g per mouse. […] Doxycycline powder was obtained from Sigma-Aldrich Co. (St. Louis, MO) and was diluted in sterile PBS.

[2] = tested on: kidney cystadenomas in Tsc2^+/- mice; conditions: cited from earlier work; for Percent decrease in tumor score per kidney with treatment / Tumor score per kidney (ave. ± Std. Err.): analysis at 12 months, ref Messina et al., 2007; for Tumor score per kidney (ave. ± Std. Err.): CCI-779 8 mg/kg per day, 5 days/week
[3] = in words
[4] = tested on: kidney cystadenomas in Tsc2^+/- mice; assay: Kidney tumor (cystadenoma) score by quantitative histopathology in Tsc2+/- mice; type: in vivo, mouse; conditions: for Tumor score per kidney (ave. ± Std. Err.): daily IP treatment at 6–7 and 12–13 months (rapamycin 8 mg/kg, IFN-g 20,000 IU), weekly rapamycin 16 mg/kg at 7–12 months
Description: The Tsc2^+/- mouse is heterozygous for a deletion of exons 1–2 as previously described. The Tsc2^+/- cohort used in this experiment was obtained by crossing these Tsc2^+/- mice with wild-type C57BL/6 mice. In order to avoid bias due to strain variation, sibling littermates were used as controls. Tsc2^+/- mice were assigned to one of three cohorts: rapamycin 8 mg/kg IP, rapamycin 8 mg/kg plus IFN-g 20,000 units IP, and untreated. All mice receiving drug therapy were treated in three consecutive parts: In part one, mice were treated daily (5 days/week, Monday through Friday) for one month (6 months ≤ age < 7 months) with their assigned treatments by intraperitoneal injection (IP). In part two, all mice in both the rapamycin and rapamycin plus IFN-g cohorts stopped their assigned daily treatment and started a weekly 16 mg/kg maintenance dose of rapamycin for five months (7 months ≤ age < 12 months). In the final part, all mice restarted the same treatment they received from 6–7 months of age for one final month (see Table 1). The two month-long periods of daily rapamycin treatment before and after the maintenance treatment were included so that we can compare the results of this study with our previous preclinical studies that also include a total of two months of daily treatment without the weekly maintenance treatment phase. All mice were euthanized at 13 months of age according to institutional animal care guidelines. We evaluated kidney disease at 13 months in this experiment instead of 12 months in prior studies because kidney disease severity is likely to be higher in older mice, and we reasoned that this may allow us to better detect small differences between treatment groups. The severity of kidney disease was determined in all animals using quantitative histopathology as described below.
Rapamycin powder was obtained from LC Laboratories (Woburn, MA) and a 20 mg/ml stock of rapamycin was made in ethanol (stored at -20°C for up to one week). The stock solution was diluted to 1.2 mg/ml in vehicle (0.25% PEG, 0.25% Tween-80) for the 8 mg/kg dose and diluted to 2.4 mg/ml in vehicle for the 16 mg/kg dose. Murine IFN-g (R&D Systems, Minneapolis, MN) was diluted to 100,000 units/ml in sterile phosphate buffered saline (PBS) containing 0.1% mouse serum albumin (Sigma-Aldrich, Inc., St. Louis, MO) and stored at 4°C. […]
For histological quantification of kidney cystadenomas, each kidney was fixed and sliced at 1 mm intervals. […] All slides were coded to keep scoring blinded, and all cystadenomas were counted, measured, and scored according to the scale shown in Table 2 by two blinded researchers (CW and AN). Cystadenomas that extended into more than one 1 mm kidney slice were counted only once and scored according to the maximum diameter. […]

[5] = mouse, in vivo
Description: Animal behavior and health were monitored daily, and animals were weighed at the start of the study and at the time of necropsy. […] All mice from rapamycin treated cohorts were euthanized 24 hours after the last rapamycin treatment upon reaching the endpoint tumor volume. Upon sacrifice, whole blood and tumor were harvested for drug level testing.

[6] = no reference given; cited from earlier work
in vivo = conditions: mouse, intraperitoneal, 8 mg/kg
[7] = tested on: subcutaneous Tsc2^-/- tumors (NTC/T2null cells); assay: Subcutaneous Tsc2-/- tumor model in nude mice, sorafenib and rapamycin study; conditions: rapamycin 8 mg/kg IP, sorafenib 60 mg/kg gavage, 5 days per week
Description: as §1
Two mice were excluded from the analyses. […] All drug doses were calculated based on an average weight of 30 g per mouse.

[8] = mean ± standard error, rapamycin 8 mg/kg 3 days per week, atorvastatin 20 mg/kg, doxycycline 10 mg/kg 5 days per week, IP
[9] = 8 mg/kg daily × 2 months, total 9.6 mg per mouse, ref Messina et al. 2007

For `CC(C)c1c(C(=O)Nc2ccccc2)c(-c2ccccc2)c(-c2ccc(F)cc2)n1CC[C@@H](O)C[C@@H](O)CC(=O)O` [Atorvastatin], the “Efficacy on tumor growth and survival, in words” value (from here on “Efficacy”) ([1]; atorvastatin 20 mg/kg) was “did not reduce tumor growth or improve survival as a single agent”, the “Day 26, average tumor volume” value [1, 8] was 1931 ± 298 mm^3 and the Median survival [1] was 32.5 days.

For `CO[C@H]1C[C@@H]2CC[C@@H](C)[C@@](O)(O2)C(=O)C(=O)N2CCCC[C@H]2C(=O)O[C@H]([C@H](C)C[C@@H]2CC[C@@H](OC(=O)C(C)(CO)CO)[C@H](OC)C2)CC(=O)[C@H](C)/C=C(\C)[C@@H](O)[C@@H](OC)C(=O)[C@H](C)C[C@H](C)/C=C/C=C/C=C/1C` [CCI-779, temsirolimus], the “% Reduction in kidney tumors (kidney tumor number)” value ([2]; 4 mg/kg 3 times a week × 3 months, total 4.32 mg per mouse, ref Lee et al. 2005) is listed as 84% and 83.6%**, the “% Reduction in kidney tumors (kidney tumor number)” value [2, 9] is listed as 64% and the “% Reduction in kidney tumors (kidney tumor score)” value [2, 9] is listed as 63%*. The “Percent decrease in tumor score per kidney with treatment” value ([2]; CCI-779 8 mg/kg per day at 6–8 months) was 39.7%, the “Percent decrease in tumor score per kidney with treatment” value ([2]; CCI-779 8 mg/kg per day at 10–12 months, 8 mg/kg/day) was 64.4% and the “Tumor score per kidney (ave. ± Std. Err.)” value ([2]; at 6–8 months) was 6.00 ± 1.01. For the same molecule, the “Tumor score per kidney (ave. ± Std. Err.)” value ([2]; at 10–12 months) was 3.54 ± 0.76.

For `C[C@H]1c2cccc(O)c2C(=O)C2=C(O)[C@]3(O)C(=O)C(C(N)=O)=C(O)[C@@H](N(C)C)[C@@H]3[C@@H](O)[C@@H]21` [Doxycycline], the “Effect on the metabolism of rapamycin (rapamycin levels in combination cohorts)” value [3] was “did not significantly affect the metabolism of rapamycin”, the “Efficacy” value ([1]; atorvastatin 20 mg/kg) was “not effective as either a single agent or in combination with rapamycin” and the “Day 26, average tumor volume” value [1, 8] was 1749 ± 352 mm^3. The Median survival [1] was 28 days.

For `CO[C@H]1C[C@@H]2CC[C@@H](C)[C@@](O)(O2)C(=O)C(=O)N2CCCC[C@H]2C(=O)O[C@H]([C@H](C)C[C@@H]2CC[C@@H](O)[C@H](OC)C2)CC(=O)[C@H](C)/C=C(\C)[C@@H](O)[C@@H](OC)C(=O)[C@H](C)C[C@H](C)/C=C/C=C/C=C/1C` [Rapamycin], the “Score of kidney lesion subtypes (cystic, pre-papillary, papillary, solid)” value ([4]; 13 months, in words, no statistics) was “reduced the score of all subtypes of kidney lesions”, the “Tumor score per kidney (ave. ± Std. Err.)” value ([4]; analysis at 13 months) was 0.83 ± .018 and the “Tumor score per kidney (ave. ± Std. Err.)” value ([4]; analysis at 13 months, listed as rapamycin) was 0.83 ± 0.18. For the same molecule, the “Percent decrease in tumor score per kidney with treatment” value ([4]; vs untreated, analysis at 13 months, daily treatment 6–7 and 12–13 months, weekly rapamycin 16 mg/kg 7–12 months) was 94.5%, the “Weight at Necropsy” value [5] was 35.6 ± 0.6 g and the “Weight at Start” value [5] was 36.0 ± 0.6 g. The Weight gain [5] was -0.4 ± 0.6 g, the “Weight gain, in words” value [5] was “failed to gain weight” and the “Trough levels for standard rapamycin dosing in humans” value [6] was 3 to 20 ng/mL. For the same molecule, the concentration at 24 h (in vivo; CD-1 nude, tumor) was 258 ± 91.6 ng/mL, the concentration at 24 h (in vivo; nude, whole blood) was 42.9 ± 24.7 ng/mL and the “Day 16, average tumor volume” value ([7]; mean ± standard error) was 284 ± 52 mm^3. The “Day 43, average tumor volume” value ([7]; mean ± standard error) was 2499 ± 222 mm^3, the “Day 44, average tumor volume” value ([7]; mean ± standard error) was 2607 ± 247 mm^3 and the Median survival ([7]; time to tumor volume ~3000 mm^3, start at ~150 mm^3) was 46 days. For the same molecule, the “Day 26, average tumor volume” value [1, 8] was 544 ± 110 mm^3, the “Day 42, average tumor volume” value [1, 8] was 1784 ± 643 mm^3 and the Median survival [1] was 41.5 days.

For `CNC(=O)c1cc(Oc2ccc(NC(=O)Nc3ccc(Cl)c(C(F)(F)F)c3)cc2)ccn1` [Sorafenib], the “Effect on the metabolism of rapamycin (rapamycin levels in combination cohorts)” value [3] was “did not significantly affect the metabolism of rapamycin”, the “Day 16, average tumor volume” value ([7]; mean ± standard error) was 2209 ± 499 mm^3 and the “Efficacy” value [7] was “not effective”.

Reference: publication PMC2670829 (BMC Pharmacology, 2009)
